The values that follow come from patent publication US20250242064A1, “CXCR4-TARGETING COMPOUNDS, AND METHODS OF MAKING AND USING THE SAME” (PROVINCIAL HEALTH SERVICES AUTHORITY, priority 2022, published 2025).

Experiment [1] addresses T1, CXCR4 (Homo sapiens, UniProt P61073). In words: Competitive binding assay, [125I]SDF-1α displacement on CHO:CXCR4 cells. More on the design: expressed in transfected cells; host or cells: CHO:CXCR4 cells. The settings on record: [125I]SDF-1α 0.01 nM, 1 h at 27° C., read-out: IC50 (nM), binding affinity for hCXCR4. Here is the method:
CHO:CXCR4 cells were seeded at a density of 1×10^5 cells/well in 24-well poly-D-lysine coated plates (Corning BioCoat) and incubated with [^125I]SDF-1α (0.01 nM, PerkinElmer) and competing nonradioactive ligands ([…]). The cells, radioligand, and competing peptides were incubated for 1 h at 27° C. with moderate shaking. Following the incubation period, the supernatant was aspirated, followed by three washes with 1 mL of ice-cold PBS. Cells were harvested with 200 μL of trypsin and counted on a y counter. Data were plotted in GraphPad Prism 7 to determine IC50 values (GraphPad Software, Inc., La Jolla, CA). The values are reported as mean±standard deviation.
Target sequence in this assay (P61073 whole entry): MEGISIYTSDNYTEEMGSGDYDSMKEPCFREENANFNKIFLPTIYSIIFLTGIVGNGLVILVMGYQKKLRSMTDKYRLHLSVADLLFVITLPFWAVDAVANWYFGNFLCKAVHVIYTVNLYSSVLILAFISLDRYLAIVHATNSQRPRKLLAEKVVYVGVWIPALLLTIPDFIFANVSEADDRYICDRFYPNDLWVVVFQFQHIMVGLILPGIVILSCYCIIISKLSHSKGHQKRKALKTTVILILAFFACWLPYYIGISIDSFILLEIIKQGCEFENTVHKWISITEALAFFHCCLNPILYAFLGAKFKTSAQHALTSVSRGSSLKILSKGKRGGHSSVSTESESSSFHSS

Experiment [2] addresses T1, CXCR4. The settings on record: reported; read-out: IC50, block of SDF-1a binding to CXCR4; cited from earlier work.
Target sequence in this assay (P61073 whole entry, species assumed): as the sequence (P61073 whole entry) above
Experiment [3] relates to non-Hodgkin lymphoma, renal cell carcinoma, lung cancer, colorectal cancer, and breast cancer xenograft models. The settings on record: reported; cited from earlier work.
The subject of experiment [4] is small cell lung cancer patients. The settings on record: reported; cited from earlier work.

Read-outs that look alike come from different tables or passages of the source. Where a SMILES comes first, the peptide text is derived from it. Bridges are numbered along the chain shown (N, C = ends). Side-chain parts run from the residue outwards. [ ]: non-standard residue; d: D form. The star is where a group is joined. X6 = COc1ccc(CCCC(=O)NCCCC[C@H](NC(=O)[C@H](CS(=O)(=O)O)NC(=O)CN2CCN(CC(=O)O)CCN(CC(=O)O)CCN(CC(=O)O)CC2)C(=O)*)cc1; X7 = COc1ccc(CCCC(=O)NCCCC[C@H](NC(=O)CN2CCN(CC(=O)O)CCN(CC(=O)O)CCN(CC(=O)O)CC2)C(=O)*)cc1; DOTA = O=C(O)CN1CCN(CC(=O)O)CCN(CC(=O)*)CCN(CC(=O)O)CC1; Butanoyl(4-(4-MeO-phenyl)) = COc1ccc(CCCC(=O)*)cc1; 2Nal = N[C@@H](Cc1ccc2ccccc2c1)C(=O)O; Lys(iPr) = CC(C)NCCCC[C@H](N)C(=O)O; Cya = N[C@@H](CS(=O)(=O)O)C(=O)O

For orientation: IC50 means the concentration that inhibits the measured activity by half.

Consider `COc1ccc(CCCC(=O)NCCCC[C@H](NC(=O)CN2CCN(CC(=O)O)CCN(CC(=O)O)CCN(CC(=O)O)CC2)C(=O)N[C@@H](CS(=O)(=O)O)C(=O)NCCCC[C@@H]2NC(=O)CC[C@H](C(=O)N[C@@H](CCCCNC(C)C)C(N)=O)NC(=O)[C@@H](C)NC(=O)[C@H](Cc3ccc4ccccc4c3)NC(=O)[C@@H](CCCNC(=N)N)NC(=O)[C@H](CCCCNC(C)C)NC(=O)[C@H](Cc3ccc(O)cc3)NC2=O)cc1` [BL34L6] (K([Cya-X7])Y[Lys(iPr)][dR][2Nal][dA][dE][Lys(iPr)]-NH2; lactam N-7), for which, at CXCR4 [1], the IC50 lay in the range of 10 to 50 nM.
For the molecule `COc1ccc(CCCC(=O)NCCCC[C@H](NC(=O)[C@H](CS(=O)(=O)O)NC(=O)CN2CCN(CC(=O)O)CCN(CC(=O)O)CCN(CC(=O)O)CC2)C(=O)NCCCC[C@@H]2NC(=O)CC[C@H](C(=O)N[C@@H](CCCCNC(C)C)C(N)=O)NC(=O)[C@@H](C)NC(=O)[C@H](Cc3ccc4ccccc4c3)NC(=O)[C@@H](CCCNC(=N)N)NC(=O)[C@H](CCCCNC(C)C)NC(=O)[C@H](Cc3ccc(O)cc3)NC2=O)cc1` [BL34L7] (K(X6)Y[Lys(iPr)][dR][2Nal][dA][dE][Lys(iPr)]-NH2; lactam N-7), at CXCR4 [1], the concentration for half-maximal inhibition (IC50) was in the range of 10 to 50 nM.
In the case of `COc1ccc(CCCC(=O)NCCCC[C@H](NC(=O)[C@H](CCCCNC(C)C)NC(=O)[C@H]2CCC(=O)N[C@@H](CCCCNC(=O)[C@H](CS(=O)(=O)O)NC(=O)CN3CCN(CC(=O)O)CCN(CC(=O)O)CCN(CC(=O)O)CC3)C(=O)N[C@@H](Cc3ccc(O)cc3)C(=O)N[C@@H](CCCCNC(C)C)C(=O)N[C@H](CCCNC(=N)N)C(=O)N[C@@H](Cc3ccc4ccccc4c3)C(=O)N[C@H](C)C(=O)N2)C(N)=O)cc1` [BL34L8] (K([Cya-DOTA])Y[Lys(iPr)][dR][2Nal][dA][dE][Lys(iPr)]K(Butanoyl(4-(4-MeO-phenyl)))-NH2; lactam N-7), the half-inhibitory concentration (IC50) at CXCR4 [1] was > 100 nM.
For “cyclo[Phe-Tyr-Lys(iPr)-D-Arg-2-Nal-Gly-D-Glu]-Lys(iPr)-NH2 [LY2510924]”, the half-inhibitory concentration (IC50) on CXCR4 [2] was 0.079 nM. Further, the “inhibition of growth of xenograft models” value in experiment [3] is “able to inhibit growth”. In experiment [4], the “treatment efficacy with carboplatin/etoposide chemotherapy” value was “failed to improve treatment efficacy”.
